Test results taken from the supplement of paper PMC10307832.

Legend:
Assay in all cases: relative viability (nuclei count vs DMSO), 5 days (fraction); higher = more cells survive
A-427 = tested on: A-427
How it was run: (§1)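 Lung cancer cell lines, seeded in 1536-well plates, were treated the following day by pin tool with a single drug or with five library-drug doses (not always all listed) in √10 steps on top of a fixed anchor-drug dose. Cells were fixed and nuclei stained in one step after 5 days, and nuclei were counted. Relative viability is the nuclei count for treated wells divided by that for vehicle wells, reported as medians of duplicate plates.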

ChaGo-K-1 = tested on: ChaGo-K-1
How it was run: as §1

EKVX = tested on: EKVX
How it was run: as §1

H3255 = tested on: H3255
How it was run: as §1

LK-2 = tested on: LK-2
How it was run: as §1

NCI-H1355 = tested on: NCI-H1355
How it was run: as §1

NCI-H1650 = tested on: NCI-H1650
How it was run: as §1

NCI-H1666 = tested on: NCI-H1666
How it was run: as §1

NCI-H1755 = tested on: NCI-H1755
How it was run: as §1

NCI-H1944 = tested on: NCI-H1944
How it was run: as §1

NCI-H2085 = tested on: NCI-H2085
How it was run: as §1

NCI-H2228 = tested on: NCI-H2228
How it was run: as §1

NCI-H2347 = tested on: NCI-H2347
How it was run: as §1

NCI-H3122 = tested on: NCI-H3122
How it was run: as §1

NCI-H322M = tested on: NCI-H322M
How it was run: as §1

NCI-H358 = tested on: NCI-H358
How it was run: as §1

NCI-H441 = tested on: NCI-H441
How it was run: as §1

NCI-H460 = tested on: NCI-H460
How it was run: as §1

NCI-H520 = tested on: NCI-H520
How it was run: as §1

NCI-H596 = tested on: NCI-H596
How it was run: as §1

NCI-H650 = tested on: NCI-H650
How it was run: as §1

NCI-H838 = tested on: NCI-H838
How it was run: as §1

SW 1573 = tested on: SW 1573
How it was run: as §1

Cc1cnc(-c2cnc(NCCNc3ccc(C#N)cn3)nc2-c2ccc(Cl)cc2Cl)[nH]1 + CS(=O)(=O)N1CCN(Cc2cc3nc(-c4cccc5[nH]ncc45)nc(N4CCOCC4)c3s2)CC1 [Pictilisib] (partner 1 µM)
relative viability (A-427; first compound 0.08 µM): 0.758 | relative viability (A-427; first compound 0.253 µM): 0.705 | relative viability (A-427; first compound 0.8 µM): 0.696 | relative viability (A-427; first compound 2.53 µM): 0.619 | relative viability (ChaGo-K-1; first compound 0.08 µM): 0.612 | relative viability (ChaGo-K-1; first compound 0.253 µM): 0.828 | relative viability (ChaGo-K-1; first compound 0.8 µM): 0.375 | relative viability (ChaGo-K-1; first compound 2.53 µM): 0.623 | relative viability (EKVX; first compound 0.08 µM): 0.462 | relative viability (EKVX; first compound 0.253 µM): 0.394 | relative viability (EKVX; first compound 0.8 µM): 0.374 | relative viability (EKVX; first compound 2.53 µM): 0.392 | relative viability (H3255; first compound 0.08 µM): 0.554 | relative viability (H3255; first compound 0.253 µM): 0.463 | relative viability (H3255; first compound 0.8 µM): 0.469 | relative viability (H3255; first compound 2.53 µM): 0.476 | relative viability (LK-2; first compound 0.08 µM): 0.646 | relative viability (LK-2; first compound 0.253 µM): 0.577 | relative viability (LK-2; first compound 0.8 µM): 0.618 | relative viability (LK-2; first compound 2.53 µM): 1.11 | relative viability (NCI-H1355; first compound 0.08 µM): 0.442 | relative viability (NCI-H1355; first compound 0.253 µM): 0.366 | relative viability (NCI-H1355; first compound 0.8 µM): 0.399 | relative viability (NCI-H1355; first compound 2.53 µM): 0.542 | relative viability (NCI-H1650; first compound 0.08 µM): 0.682 | relative viability (NCI-H1650; first compound 0.253 µM): 0.595 | relative viability (NCI-H1650; first compound 0.8 µM): 0.518 | relative viability (NCI-H1650; first compound 2.53 µM): 0.597 | relative viability (NCI-H1666; first compound 0.08 µM): 0.434 | relative viability (NCI-H1666; first compound 0.253 µM): 0.295 | relative viability (NCI-H1666; first compound 0.8 µM): 0.332 | relative viability (NCI-H1666; first compound 2.53 µM): 0.589 | relative viability (NCI-H1755; first compound 0.08 µM): 0.507 | relative viability (NCI-H1755; first compound 0.253 µM): 0.411 | relative viability (NCI-H1755; first compound 0.8 µM): 0.386 | relative viability (NCI-H1755; first compound 2.53 µM): 0.559 | relative viability (NCI-H1944; first compound 0.08 µM): 0.342 | relative viability (NCI-H1944; first compound 0.8 µM): 0.334 | relative viability (NCI-H1944; first compound 2.53 µM): 0.38 | relative viability (NCI-H2085; first compound 0.08 µM): 0.551 | relative viability (NCI-H2085; first compound 0.253 µM): 0.517 | relative viability (NCI-H2085; first compound 0.8 µM): 0.455 | relative viability (NCI-H2085; first compound 2.53 µM): 0.43 | relative viability (NCI-H2228; first compound 0.08 µM): 0.263 | relative viability (NCI-H2228; first compound 0.253 µM): 0.229 | relative viability (NCI-H2228; first compound 0.8 µM): 0.569 | relative viability (NCI-H2228; first compound 2.53 µM): 0.287 | relative viability (NCI-H2347; first compound 0.08 µM): 0.931 | relative viability (NCI-H2347; first compound 0.253 µM): 0.416 | relative viability (NCI-H2347; first compound 0.8 µM): 0.698 | relative viability (NCI-H2347; first compound 2.53 µM): 0.6 | relative viability (NCI-H3122; first compound 0.08 µM): 0.65 | relative viability (NCI-H3122; first compound 0.253 µM): 0.64 | relative viability (NCI-H3122; first compound 0.8 µM): 0.646 | relative viability (NCI-H3122; first compound 2.53 µM): 0.763 | relative viability (NCI-H322M; first compound 0.08 µM): 0.59 | relative viability (NCI-H322M; first compound 0.253 µM): 0.523 | relative viability (NCI-H322M; first compound 0.8 µM): 0.413 | relative viability (NCI-H322M; first compound 2.53 µM): 0.538 | relative viability (NCI-H358; first compound 0.08 µM): 0.301 | relative viability (NCI-H358; first compound 0.8 µM): 0.389 | relative viability (NCI-H358; first compound 2.53 µM): 0.264 | relative viability (NCI-H441; first compound 0.08 µM): 0.486 | relative viability (NCI-H441; first compound 0.253 µM): 0.376 | relative viability (NCI-H441; first compound 0.8 µM): 0.428 | relative viability (NCI-H441; first compound 2.53 µM): 0.553 | relative viability (NCI-H460; first compound 0.08 µM): 0.243 | relative viability (NCI-H460; first compound 0.253 µM): 0.378 | relative viability (NCI-H460; first compound 0.8 µM): 0.318 | relative viability (NCI-H460; first compound 2.53 µM): 0.504 | relative viability (NCI-H520; first compound 0.08 µM): 0.286 | relative viability (NCI-H520; first compound 0.253 µM): 0.336 | relative viability (NCI-H520; first compound 0.8 µM): 0.346 | relative viability (NCI-H520; first compound 2.53 µM): 0.497 | relative viability (NCI-H596; first compound 0.08 µM): 0.424 | relative viability (NCI-H596; first compound 0.253 µM): 0.397 | relative viability (NCI-H596; first compound 0.8 µM): 0.391 | relative viability (NCI-H596; first compound 2.53 µM): 0.435 | relative viability (NCI-H650; first compound 0.08 µM): 0.936 | relative viability (NCI-H650; first compound 0.253 µM): 1.03 | relative viability (NCI-H650; first compound 0.8 µM): 0.916 | relative viability (NCI-H650; first compound 2.53 µM): 0.873 | relative viability (NCI-H838; first compound 0.08 µM): 0.525 | relative viability (NCI-H838; first compound 0.253 µM): 0.552 | relative viability (NCI-H838; first compound 0.8 µM): 0.737 | relative viability (NCI-H838; first compound 2.53 µM): 1.19 | relative viability (SW 1573; first compound 0.08 µM): 0.487 | relative viability (SW 1573; first compound 0.253 µM): 0.492 | relative viability (SW 1573; first compound 0.8 µM): 0.552 | relative viability (SW 1573; first compound 2.53 µM): 0.327
